What was measured:
Type in all cases: cell-based
[1] = tested on: varicella-zoster virus (VZV TK+); test: microbe, parasite or virus in culture; conditions: Human alphaherpesvirus 3, HEL, read-out: EC50 (HEL cells) VZV TK+
[2] = tested on: human cytomegalovirus (HCMV Davis strain); test: Antiviral activity against HCMV Davis in HEL cells; conditions: Human betaherpesvirus 5, HEL, read-out: EC50 (HEL cells) HCMV Davis
[3] = tested on: Sindbis Virus (SINV); test: Antiviral activity against Sindbis virus in Vero cells; conditions: read-out: EC50 (Vero cells) SINV, Vero cells, viral induced cytopathic effect
[4] = tested on: yellow fever virus (YFV); test: microbe, parasite or virus in culture; conditions: Vero, read-out: EC50 (Vero cells) YFV

## O=c1[nH]c(=O)n([C@H]2C[C@H](O)[C@@H](CO)O2)cc1/C=C/Br [Brivudin]
[1]
  EC50: 0.012 µM

## Nc1ccn(C[C@@H](CO)OCP(=O)(O)O)c(=O)n1 [Cidofovir]
[2]
  EC50: 0.76 µM

## C/C(=C\CP(=O)(N[C@@H](C)C(=O)OC(C)C)Oc1cccc2ccccc12)Cn1cc(C)c(=O)[nH]c1=O (stereo partly drawn) [E-8a, (E)-N^1-(4′-O-(1-Naphthyl)-(isopropyloxy-L-alanine)-phosphinyl-2′-methyl-but-2′-enyl)thymine]
[1]
  EC50: 44.7 µM

## COc1c(C)c2c(c(O)c1C/C=C(\C)CCC(=O)O)C(=O)OC2 [Mycophenolic acid]
[3]
  EC50: 4 µM
[4]
  EC50: 4 µM
